Measurements taken from patent US20240018161A1, “MODULATORS OF CYSTIC FIBROSIS TRANSMEMBRANE CONDUCTANCE REGULATOR” (VERTEX PHARMACEUTICALS INCORPORATED, priority 2020, published 2024).
Like-named read-outs stand apart in the source and are kept apart here.

Key:
[1] = amide bond, 13-membered ring
[2] = target: T1, CFTR-mediated chloride transport in human intestinal epithelial enteroid cells (Homo sapiens, UniProt P13569); assay: Membrane potential dye, Enteroid Assay A; assay type: cell-based; settings: for EC50: read-out: Ent. A EC50
T1 sequence (P13569 with tags, fused parts or gaps DEL508-508): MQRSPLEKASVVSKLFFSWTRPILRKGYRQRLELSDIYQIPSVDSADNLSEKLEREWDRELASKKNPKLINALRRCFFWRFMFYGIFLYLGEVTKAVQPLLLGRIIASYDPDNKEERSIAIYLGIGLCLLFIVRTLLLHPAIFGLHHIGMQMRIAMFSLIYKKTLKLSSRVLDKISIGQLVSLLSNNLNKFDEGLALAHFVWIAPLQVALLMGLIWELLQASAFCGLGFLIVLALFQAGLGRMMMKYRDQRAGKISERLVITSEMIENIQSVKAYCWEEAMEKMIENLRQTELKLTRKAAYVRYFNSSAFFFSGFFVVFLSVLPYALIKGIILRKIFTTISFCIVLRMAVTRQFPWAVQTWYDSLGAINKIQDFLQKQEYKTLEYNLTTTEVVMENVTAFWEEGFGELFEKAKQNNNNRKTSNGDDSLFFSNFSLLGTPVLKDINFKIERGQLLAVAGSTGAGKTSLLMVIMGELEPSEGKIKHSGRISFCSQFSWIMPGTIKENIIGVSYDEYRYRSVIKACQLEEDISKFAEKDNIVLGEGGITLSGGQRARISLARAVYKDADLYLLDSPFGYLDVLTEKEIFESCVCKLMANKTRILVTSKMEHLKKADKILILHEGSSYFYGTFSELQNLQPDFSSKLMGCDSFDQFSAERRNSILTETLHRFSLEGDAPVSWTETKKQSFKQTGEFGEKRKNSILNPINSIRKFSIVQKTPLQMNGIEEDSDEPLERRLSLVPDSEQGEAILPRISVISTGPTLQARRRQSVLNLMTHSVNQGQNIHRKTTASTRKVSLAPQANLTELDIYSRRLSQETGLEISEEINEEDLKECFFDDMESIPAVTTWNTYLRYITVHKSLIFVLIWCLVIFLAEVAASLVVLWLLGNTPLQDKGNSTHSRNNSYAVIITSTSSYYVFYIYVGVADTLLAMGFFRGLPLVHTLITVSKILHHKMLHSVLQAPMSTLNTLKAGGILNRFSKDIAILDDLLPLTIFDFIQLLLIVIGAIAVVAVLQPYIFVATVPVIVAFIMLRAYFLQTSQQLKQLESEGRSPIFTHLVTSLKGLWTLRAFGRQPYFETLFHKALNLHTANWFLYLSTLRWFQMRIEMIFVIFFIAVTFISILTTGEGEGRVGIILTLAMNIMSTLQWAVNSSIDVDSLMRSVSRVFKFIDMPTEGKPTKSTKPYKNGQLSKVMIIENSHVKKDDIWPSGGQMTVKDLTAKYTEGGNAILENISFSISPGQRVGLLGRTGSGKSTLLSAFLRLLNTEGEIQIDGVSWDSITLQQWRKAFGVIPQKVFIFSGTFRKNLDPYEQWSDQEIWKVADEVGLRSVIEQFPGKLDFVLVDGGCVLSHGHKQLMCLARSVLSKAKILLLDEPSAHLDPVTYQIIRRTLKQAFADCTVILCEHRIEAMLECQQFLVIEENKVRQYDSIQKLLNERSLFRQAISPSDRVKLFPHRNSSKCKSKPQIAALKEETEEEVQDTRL
Procedure, shortened: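 Membrane potential dye (20 μM methyl oxonol, with 30 μM CaCCinh-A01 and 30 μM Chicago Sky Blue) loaded 25 min at room temperature into ROCK-inhibitor-seeded human enteroid cells. Chloride-free stimulation buffer triggered transport, followed by 15 min fluorescence. % Activity relative to 3 μM/3 μM/300 nM triple-combination control.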

[3] = target: T1, CFTR-mediated chloride transport in human intestinal epithelial enteroid cells; assay: Membrane potential dye, Enteroid Assay B; assay type: cell-based; settings: for EC50: read-out: Ent. B EC50
Procedure: Base medium (ADF+++) consisted of Advanced DMEM/Ham's F12, 2 mM Glutamax, 10 mM HEPES, […] penicillin/streptomycin.
Bath 1 Buffer consisted of 1 mM MgCl2, 160 mM NaCl, 4.5 mM KCl, 10 mM HEPES, 10 mM Glucose, 2 mM CaCl2.
Chloride Free Buffer consisted of 1 mM Magnesium Gluconate, 2 mM Calcium Gluconate, 4.5 mM Potassium Gluconate, 160 mM Sodium Gluconate, 10 mM HEPES, 10 mM Glucose.
Bath1 Dye Solution consisted of Bath 1 Buffer, 0.04% Pluronic F127, 20 μM Methyl Oxonol, 30 μM CaCCinh-A01, 30 μM Chicago Sky Blue.
Chloride Free Dye Solution consisted of Chloride Free Buffer, 0.04% Pluronic F127, 20 μM Methyl Oxonol, 30 μM CaCCinh-A01, 30 μM Chicago Sky Blue.
3. Enteroid Cell Harvesting and Seeding
Cells were recovered in cell recovery solution, collected by centrifugation at 650 rpm for 5 min at 4° C., resuspended in TryPLE and incubated for 5 min at 37° C. Cells were then collected by centrifugation at 650 rpm for 5 min at 4° C. and resuspended in IEMM containing 10 μM ROCK inhibitor (RI).
5. Membrane Potential Dye, Enteroid Assay B
Briefly, cells were washed 5 times in Bath 1 Buffer. Bath 1 Dye Solution was added and the cells were incubated for 25 min at room temperature. Following dye incubation, cells were washed 3 times in Chloride Free Dye Solution. Chloride transport was initiated by addition of Chloride Free Dye Stimulation Solution and the fluorescence signal was read for 15 min.

[4] = enteroid cells incubated with test compound 18-24 hours, acute 10 μM forskolin and 300 nM N-[2,4-bis(1,1-dimethylethyl)-5-hydroxyphenyl]-1,4-dihydro-4-oxoquinoline-3-carboxamide
[5] = percentage of chloride transport of triple combination control (3 μM N-[(6-amino-2-pyridyl)sulfonyl]-6-(3-fluoro-5-isobutoxy-phenyl)-2-[(4S)-2,2,4-trimethylpyrrolidin-1-yl]pyridine-3-carboxamide based)
[6] = percentage of chloride transport of triple combination control (1 μM (14S)-8-[3-(2-{Dispiro[2.0.2.1]heptan-7-yl}ethoxy)-1H-pyrazol-1-yl]-... trione based)

Molecule	Ent. A Max Activity (%) ([2]; Enteroid Assay A)	EC50 ([2]; Enteroid Assay A)	Ent. B Max Activity (%) ([3]; Enteroid Assay B)	EC50 ([3]; Enteroid Assay B)	also measured
Cc1cccc(C)c1-c1cc2nc(n1)NS(=O)(=O)c1cccc(c1)C(=O)N1Cc3cc(C(F)(F)F)ccc3[C@@H](O2)[C@H]1CC(C)C	–	–	–	–	ring closure, yield after HPLC ([1]; from Cc1cccc(C)c1-c1cc(O[C@@H]2c3ccc(C(F)(F)F)cc3CN[C@@H]2CC(C)C)nc(NS(=O)(=O)c2cccc(C(=O)O)c2)n1, HATU/NaOtBu, DMF/THF, 0.25 h, 3 steps): 3%
Cc1cccc(C)c1-c1cc2nc(n1)NS(=O)(=O)c1cccc(c1)C(=O)N1CCN(CCC(C)(C)C)C[C@@H]1CO2 [Compound 298]	–	–	–	–	EC50 [2, 4]: < 1 µM; Ent. A Max Activity (%) [2, 5]: +++ (+++ is >60%); EC50 [3, 4]: < 1 µM; Ent. B Max Activity (%) [3, 6]: +++ (+++ is >60%)
12-(2,6-dimethylphenyl)-23-(2-methylpropyl)-15-oxa-8λ^6-thia-1,9,11,25-tetraazapentacyclo[14.7.1.13,7.110,14.017,22]hexacosa-3(26),4,6,10(25),11,13,17,19,21-nonaene-2,8,8-trione, major diastereomer	–	–	–	–	ring closure, yield after HPLC ([1]; HATU/DIEA, DMF, 115.0 mM): 53%
Cc1cccc(C)c1-c1cc2nc(n1)NS(=N)(=O)c1cccc(c1)C(=O)N1CCN(Cc3ccccc3)CC(C1)O2 (stereo not drawn) [Compound 248]	++ (++ is 30-60%)	1 to 3 µM	+++ (+++ is >600%)	< 1 µM	–
Cc1cccc(C)c1-c1cc2nc(n1)NS(=N)(=O)c1cccc(c1)C(=O)N1CCN(C(=O)OC(C)(C)C)CC(C1)O2 (stereo not drawn) [Compound 239, tert-Butyl 12-(2,6-dimethylphenyl)-8-imino-2,8-dioxo-15-oxa-8λ^6-thia-1,9,11,18,22-pentaazatetracyclo[14.4.1.13,7.110,14]tricosa-3,5,7(23),10,12,14(22)-hexaene-18-carboxylate]	+++ (+++ is >600%)	1 to 3 µM	+++ (+++ is >600%)	1 to 3 µM	–
Cc1cccc(C)c1-c1cc2nc(n1)NS(=O)(=O)c1cccc(c1)C(=O)N1Cc3ccccc3[C@H](C1)O2 (stereo in doubt) [Compound 319]	–	–	–	–	EC50 [2, 4]: < 1 µM; Ent. A Max Activity (%) [2, 5]: +++ (+++ is >60%); EC50 [3, 4]: < 1 µM; Ent. B Max Activity (%) [3, 6]: +++ (+++ is >60%)
Cc1cccc(C)c1-c1cc2nc(n1)NS(=O)(=O)c1cccc(c1)C(=O)N1Cc3cc(C(C)(C)C)ccc3C(O2)[C@H]1CC(C)(C)C (stereo in doubt) [Compound 188, (16S,24R)-20-tert-Butyl-12-(2,6-dimethylphenyl)-24-(2,2-dimethylpropyl)-15-oxa-8λ^6-thia-1,9,11,25-tetraazapentacyclo[14.7.1.13,7.110,14.017,22]hexacosa-3(26),4,6,10(25),11,13,17,19,21-nonaene-2,8,8-trione]	+++ (+++ is >600%)	< 1 µM	+++ (+++ is >600%)	< 1 µM	–
Cc1cccc(C)c1-c1cc2nc(n1)NS(=N)(=O)c1cccc(c1)C(=O)N1CCN(CCC(C)(C)C)CC(C1)O2 (stereo not drawn) [Compound 243, 18-(3,3-Dimethylbutyl)-12-(2,6-dimethylphenyl)-8-imino-15-oxa-8λ^6-thia-1,9,11,18,22-pentaazatetracyclo[14.4.1.13,7.110,14]tricosa-3,5,7(23),10,12,14(22)-hexaene-2,8-dione]	+++ (+++ is >600%)	< 1 µM	+++ (+++ is >600%)	< 1 µM	–
Cc1cccc(C)c1-c1cc2nc(n1)NS(=N)(=O)c1cccc(c1)C(=O)N1CCN(CCC(C)(C)C)C[C@H](C1)O2 (single isomer, unassigned) [Compound 245, 18-(3,3-dimethylbutyl)-12-(2,6-dimethylphenyl)-8-imino-15-oxa-8λ^6-thia-1,9,11,18,22-pentaazatetracyclo[14.4.1.13,7.110,14]tricosa-3,5,7(23),10,12,14(22)-hexaene-2,8-dione]	++ (++ is 30-60%)	< 1 µM	+++ (+++ is >600%)	< 1 µM	–
Cc1cccc(C)c1-c1cc2nc(n1)NS(=O)(=O)c1cccc(c1)C(=O)N1Cc3cc(C(C)(C)C)ccc3C(C1)O2 (single isomer, unassigned) [Compound 183, 20-tert-butyl-12-(2,6-dimethylphenyl)-15-oxa-8λ^6-thia-1,9,11,25-tetraazapentacyclo[14.7.1.13,7.110,14.017,22]hexacosa-3,5,7(26),10,12,14(25),17,19,21-nonaene-2,8,8-trione]	+++ (+++ is >600%)	< 1 µM	+++ (+++ is >600%)	< 1 µM	–
Cc1cccc(C)c1-c1cc2nc(n1)NS(=O)(=O)c1cccc(c1)C(=O)N1CCN(CCC(C)(C)C)C[C@H](C1)O2 [Compound 1, (16R)-18-(3,3-Dimethylbutyl)-12-(2,6-dimethylphenyl)-15-oxa-8λ^6-thia-1,9,11,18,22-pentaazatetracyclo[14.4.1.13,7.110,14]tricosa-3,5,7(23),10,12,14(22)-hexaene-2,8,8-trione]	–	–	–	–	EC50 [2, 4]: < 1 µM; Ent. A Max Activity (%) [2, 5]: +++ (+++ is >60%); EC50 [3, 4]: < 1 µM; Ent. B Max Activity (%) [3, 6]: +++ (+++ is >60%)
Cc1cccc(C)c1-c1cc2nc(n1)NS(=O)(=O)c1cccc(c1)C(=O)N1CCN(C3CC4(CCCCC4)C3)[C@H](CC(C)C)[C@H](C1)O2 [Compound 120, (16S,17R)-12-(2,6-dimethylphenyl)-17-(2-methylpropyl)-18-{spiro[3.5]nonan-2-yl}-15-oxa-8λ^6-thia-1,9,11,18,22-pentaazatetracyclo[14.4.1.13,7.110,14]tricosa-3(23),4,6,10(22),11,13-hexaene-2,8,8-trione]	–	–	+++ (+++ is >600%)	< 1 µM	–
Cc1cccc(C)c1-c1cc2nc(n1)NS(=O)(=O)c1cccc(c1)C(=O)N1CCN[C@H](CC(C)C)[C@H](C1)O2 [Compound 118, (16S,17R)-12-(2,6-Dimethylphenyl)-17-(2-methylpropyl)-15-oxa-8λ^6-thia-1,9,11,18,22-pentaazatetracyclo[14.4.1.13,7.110,14]tricosa-3(23),4,6,10(22),11,13-hexaene-2,8,8-trione]	–	–	+++ (+++ is >600%)	< 1 µM	–
Cc1cccc(C)c1-c1cc2nc(n1)NS(=O)(=O)c1cccc(c1)C(=O)N1Cc3cc(C(C)(C)C)ccc3C(CO2)C1C (single isomer, unassigned) [Compound 218, 21-tert-Butyl-12-(2,6-dimethylphenyl)-25-methyl-15-oxa-8λ^6-thia-1,9,11,26-tetraazapentacyclo[15.7.1.13,7.110,14.018,23]heptacosa-3,5,7(27),10,12,14(26),18,20,22-nonaene-2,8,8-trione]	–	–	+ (+ is <30%)	–	–
Cc1cccc(C)c1-c1cc2nc(n1)NS(=O)(=O)c1cncc(c1)C(=O)N1Cc3cc(C(C)(C)C)ccc3[C@H](O2)[C@H]1CC(C)C [Compound 331]	+++ (+++ is >600%)	< 1 µM	+++ (+++ is >600%)	< 1 µM	–
Cc1cccc(C)c1-c1cc2nc(n1)NS(=O)(=O)c1cccc(c1)C(=O)N1C[C@@H](CN(C(=O)OC(C)(C)C)C[C@@H]1CCO)O2 (single isomer, unassigned) [Compound 137, tert-butyl 12-(2,6-dimethylphenyl)-20-(2-hydroxyethyl)-2,8,8-trioxo-15-oxa-8λ^6-thia-1,9,11,18,22-pentaazatetracyclo[14.4.1.13,7.110,14]tricosa-3(23),4,6,10(22),11,13-hexaene-18-carboxylate]	–	–	+++ (+++ is >600%)	1 to 3 µM	–
Cc1cccc(C)c1-c1cc2nc(n1)NS(=O)(=O)c1cccc(c1)C(=O)N1C[C@H](O2)c2ccccc2[C@@H]1CC(C)C (single isomer, unassigned) [Compound 190, 12-(2,6-Dimethylphenyl)-23-(2-methylpropyl)-15-oxa-8λ^6-thia-1,9,11,25-tetraazapentacyclo[14.7.1.13,7.110,14.017,22]hexacosa-3(26),4,6,10(25),11,13,17,19,21-nonaene-2,8,8-trione]	–	–	++ (++ is 30-60%)	< 1 µM	–
